This note sets out measurements from patent publication US8785459B2, “Quinazoline compounds as kinase inhibitors” (Development Center for Biotechnology, priority 2011, dated 2014).

Structures are written as SMILES.

B-Raf, sequence (P15056 whole entry): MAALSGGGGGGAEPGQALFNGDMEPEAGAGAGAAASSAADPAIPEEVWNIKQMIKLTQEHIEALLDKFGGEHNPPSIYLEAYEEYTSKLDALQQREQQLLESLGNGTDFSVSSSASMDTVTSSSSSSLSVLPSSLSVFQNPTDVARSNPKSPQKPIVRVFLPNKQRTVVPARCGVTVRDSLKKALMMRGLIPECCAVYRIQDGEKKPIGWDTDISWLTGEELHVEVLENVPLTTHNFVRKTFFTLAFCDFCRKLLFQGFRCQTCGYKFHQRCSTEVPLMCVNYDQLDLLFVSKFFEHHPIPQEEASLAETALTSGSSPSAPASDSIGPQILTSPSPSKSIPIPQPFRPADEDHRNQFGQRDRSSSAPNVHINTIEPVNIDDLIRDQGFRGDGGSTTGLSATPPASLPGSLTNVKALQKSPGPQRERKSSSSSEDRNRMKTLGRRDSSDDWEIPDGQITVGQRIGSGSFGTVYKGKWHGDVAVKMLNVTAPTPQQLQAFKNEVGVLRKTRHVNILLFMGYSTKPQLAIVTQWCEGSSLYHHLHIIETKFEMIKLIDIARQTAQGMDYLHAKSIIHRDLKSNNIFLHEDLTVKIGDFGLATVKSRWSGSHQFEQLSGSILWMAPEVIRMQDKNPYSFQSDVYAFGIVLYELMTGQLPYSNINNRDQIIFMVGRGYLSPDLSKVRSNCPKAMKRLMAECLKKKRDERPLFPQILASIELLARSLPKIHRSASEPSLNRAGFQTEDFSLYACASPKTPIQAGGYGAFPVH

The first assay addresses B-Raf (Homo sapiens (Human), UniProt P15056). The experiment in a line: Raf kinase assay (B-Raf), [33P] incorporation into MEK1(K97R). It is filed as biochemical.
Conditions: not given
As for the experimental part: (§1) A. Raf Kinase Assays (B-Raf, B-raf (V600E), and C-Raf)
(§2) Inhibition of kinase activity by test compound disclosed herein was estimated by quantifying the amount of [^33P] incorporation of substrate in the presence of test compound. Standard assay conditions were 2 ng of recombinant C-Raf or 5 ng of recombinant B-Raf or 5 ng of recombinant B-Raf (V600E) kinase (Upstate Biotechnology) with 500 ng MEK1(K97R) in assay buffer {8 μM ATP, 0.5 μCi [^33P]ATP (specific activity 3000 Ci/mmol, PerkinElmer), 50 mM Tris/HCl (pH7.5), and 1 mM EGTA, 1 mM Na3VO4, 1% 2-mercaptoethanol, 0.1% Brij 35, and 0.2 mg/ml BSA} at a final volume of 25 μL. Reactions were incubated at 30° C. for 30 min and stopped by adding 3% phosphoric acid, harvested onto a 96-well GF/B UniFilter (PerkinElmer) using a unifilter harvester (PerkinElmer), and counted with a TopCount microplate scintillation counter (PerkinElmer). The IC50 values of inhibitors were determined after carrying out assays at 3-fold serially diluted concentrations of each compound in duplication. The results were analyzed using linear regression software (GraphPad Prism 4; GraphPad Software Inc.). Inhibition of B-Raf, B-raf (V600E), and C-Raf kinases by various compounds listed in Table 1 are summarized and shown in Table 3 below. IC50 value is defined as the concentration of the test compound which achieves a half-maximal inhibition of the kinase activity.
`COc1cccc(-c2ccc3ncnc(Nc4ccccc4)c3c2)c1` [Compound 3, 6-(3-methoxyphenyl)-N-phenylquinazolin-4-amine] gave an IC50 of 3290 nM.

Consider `Oc1ccc(-c2ccc3ncnc(Nc4ccccc4)c3c2)cc1` [Compound 4, 4-(4-(phenylamino)quinazolin-6-yl)phenol], for which inhibition was half-maximal at 3990 nM (IC50).

For `CCS(=O)(=O)Nc1ccc(-c2ccc3ncnc(Nc4ccccc4)c3c2)cc1` [Compound 24, N-(4-(4-(phenylamino)quinazolin-6-yl)phenyl)ethanesulfonamide], half-maximal inhibition (IC50) was put at 1700 nM.

The same assay, now with this note: 1.0 μM compound.
`COc1cc(-c2ccc3ncnc(Nc4c(F)ccc5[nH]ncc45)c3c2)ccc1O` [Compound 149, 4-(4-(5-fluoro-1H-indazol-4-ylamino)quinazolin-6-yl)-2-methoxyphenol]: the “B-Raf inhibition at 1.0 μM” value stood at 15.2%.

The assay is the same for the next values; noted with them: 1.0 μM compound; read-out: B-Raf inhibition at 1.0 μM.
On to `COc1ccc(-c2ccc3ncnc(Nc4ccccc4)c3c2)cc1` [Compound 10, 6-(4-methoxyphenyl)-N-phenylquinazolin-4-amine], for which the inhibition at 1 µM amounted to 15.8%.

In the case of `NC(=O)Nc1ccc(-c2ccc3ncnc(Nc4ccccc4)c3c2)cc1` [Compound 11, 1-(4-(4-(phenylamino)quinazolin-6-yl)phenyl)urea], the inhibition at 1 µM worked out at 19.9%.

As to `CCNC(=O)Nc1ccc(-c2ccc3ncnc(Nc4ccccc4)c3c2)cc1` [Compound 12, 1-ethyl-3-(4-(4-(phenylamino)quinazolin-6-yl)phenyl)urea], the inhibition at 1 µM came out at 18.2%.

For the compound `COc1cc(-c2ccc3ncnc(Nc4ccc(OC)c(OC)c4)c3c2)ccc1O` [Compound 13, 4-(4-(3,4-dimethoxyphenylamino)quinazolin-6-yl)-2-methoxyphenol], the inhibition at 1 µM stood at 7.7%.

For the compound `CCS(=O)(=O)Nc1ccc(-c2ccc3ncnc(Nc4ccccc4)c3c2)cc1` [Compound 24, N-(4-(4-(phenylamino)quinazolin-6-yl)phenyl)ethanesulfonamide], the inhibition at 1 µM stood at 48.6%.

As for `CCS(=O)(=O)Nc1ccc(-c2ccc3ncnc(Nc4cccc(NS(=O)(=O)CC)c4)c3c2)cc1` [Compound 26, N-(3-(6-(4-(ethylsulfonamido)phenyl)quinazolin-4-ylamino)phenyl)ethanesulfonamide], the inhibition at 1 µM was 45.7%.

`O=S(=O)(Nc1ccc(-c2ccc3ncnc(Nc4ccccc4)c3c2)cc1)c1ccccc1` [Compound 28, N-(4-(4-(phenylamino)quinazolin-6-yl)phenyl)benzenesulfonamide]: the inhibition at 1 µM is 30.5%.

With `COc1cc(-c2cc3c(Nc4ccccc4)ncnc3cc2OC)ccc1O` [Compound 30, 2-methoxy-4-(7-methoxy-4-(phenylamino)quinazolin-6-yl)phenol], the inhibition at 1 µM stood at 10%.

`COc1cc(-c2ccc3ncnc(Nc4cccc(C(=O)O)c4)c3c2)ccc1O` [Compound 32, 3-(6-(4-hydroxy-3-methoxyphenyl)quinazolin-4-ylamino)benzoic acid]: the inhibition at 1 µM amounted to 34.7%.

On to `COc1cc(-c2ccc3ncnc(Nc4ccc5cc[nH]c5c4)c3c2)ccc1O` [Compound 40, 4-(4-(1H-indol-6-ylamino)quinazolin-6-yl)-2-methoxyphenol], for which the inhibition at 1 µM was 32.2%.

On to `COc1ccc(Nc2ncnc3cc(OC)c(-c4ccc(O)c(OC)c4)cc23)cc1O` [Compound 42, 4-(4-(3-hydroxy-4-methoxyphenylamino)-7-methoxyquinazolin-6-yl)-2-methoxyphenol], for which the inhibition at 1 µM is 20.4%.

Consider `COc1cc(-c2ccc3ncnc(Nc4ccc(C(N)=O)cc4)c3c2)ccc1O` [Compound 47, 4-(6-(4-hydroxy-3-methoxyphenyl)quinazolin-4-ylamino)benzamide], for which the inhibition at 1 µM was 37.8%.

Turning to `COc1ccc(C(=O)O)c(Nc2ncnc3ccc(-c4ccc(O)c(OC)c4)cc23)c1` [Compound 48, 2-(6-(4-hydroxy-3-methoxyphenyl)quinazolin-4-ylamino)-4-methoxybenzoic acid], the inhibition at 1 µM turned out to be 30.6%.

For the compound `COc1cc(-c2ccc3ncnc(Nc4ccccc4C(=O)O)c3c2)ccc1O` [Compound 50, 2-(6-(4-hydroxy-3-methoxyphenyl)quinazolin-4-ylamino)benzoic acid], the inhibition at 1 µM came out at 15.6%.

Regarding `COc1cc(-c2ccc3ncnc(Nc4cc(O)ccc4OC)c3c2)ccc1O` [Compound 55, 4-(4-(5-hydroxy-2-methoxyphenylamino)quinazolin-6-yl)-2-methoxyphenol], the inhibition at 1 µM is 38.1%.

`COc1cc(-c2ccc3ncnc(Nc4ccc(C(=O)O)cc4)c3c2)ccc1O` [Compound 57, 4-(6-(4-hydroxy-3-methoxyphenyl)quinazolin-4-ylamino)benzoic acid]: the inhibition at 1 µM turned out to be 4.8%.

For the compound `COc1cc(-c2ccc3ncnc(Nc4cccc(NS(=O)(=O)C(F)(F)F)c4)c3c2)ccc1O` [Compound 65, 1,1,1-trifluoro-N-(3-(6-(4-hydroxy-3-methoxyphenyl)quinazolin-4-ylamino)phenyl)methanesulfonamide], the inhibition at 1 µM came to 40.4%.

With `O=S(=O)(Nc1ccc(-c2ccc3ncnc(Nc4ccccc4)c3c2)cc1)c1ccc(F)cc1` [Compound 70, 4-fluoro-N-(4-(4-(phenylamino)quinazolin-6-yl)phenyl)benzenesulfonamide], the inhibition at 1 µM is -6.5%.

Consider `COc1cc(-c2ccc3ncnc(Nc4cccc5[nH]ccc45)c3c2)ccc1O` [Compound 83, 4-(4-(1H-indol-4-ylamino)quinazolin-6-yl)-2-methoxyphenol], for which the inhibition at 1 µM amounted to 36.3%.

For the compound `COc1cc(-c2ccc3ncnc(Nc4ccc(F)c(NS(C)(=O)=O)c4)c3c2)ccc1O` [Compound 130, N-(2-fluoro-5-(6-(4-hydroxy-3-methoxyphenyl)quinazolin-4-ylamino)phenyl)methanesulfonamide], the inhibition at 1 µM was determined as 44.1%.

On to `c1ccc(Nc2ncnc3ccc(-c4ccccc4)cc23)cc1` [Compound 132, N,6-diphenylquinazolin-4-amine], for which the inhibition at 1 µM amounted to 22.4%.

Consider `COc1cc(-c2ccc3ncc(C#N)c(Nc4cccc5[nH]ncc45)c3c2)ccc1O` [Compound 135, 4-(1H-indazol-4-ylamino)-6-(4-hydroxy-3-methoxyphenyl)quinoline-3-carbonitrile], for which the inhibition at 1 µM was determined as 24%.

`COc1cc(-c2ccc3ncnc(Nc4cc(NS(C)(=O)=O)ccc4Cl)c3c2)ccc1O` [Compound 139, N-(4-chloro-3-(6-(4-hydroxy-3-methoxyphenyl)quinazolin-4-ylamino)phenyl)methanesulfonamide]: the inhibition at 1 µM was determined as 25.8%.

Consider `COc1cc(-c2ccc3ncnc(Nc4ccc(Cl)c(NS(C)(=O)=O)c4)c3c2)ccc1O` [Compound 140, N-(2-chloro-5-(6-(4-hydroxy-3-methoxyphenyl)quinazolin-4-ylamino)phenyl)methanesulfonamide], for which the inhibition at 1 µM came to 24.3%.

Regarding `COc1cc(-c2ccc3nccc(Nc4ccc(Cl)c(NS(C)(=O)=O)c4)c3c2)ccc1O` [Compound 141, N-(2-chloro-5-(6-(4-hydroxy-3-methoxyphenyl)quinolin-4-ylamino)phenyl)methanesulfonamide], the inhibition at 1 µM stood at 4.6%.

As to `Fc1ccc(Nc2ncnc3ccc(-c4ccc5[nH]ncc5c4)cc23)cc1Cl` [Compound 142, N-(3-chloro-4-fluorophenyl)-6-(1H-indazol-5-yl)quinazolin-4-amine], the inhibition at 1 µM was 23.3%.

Take `COc1cc(-c2ccc3nccc(Nc4ccc(F)c(NS(C)(=O)=O)c4)c3c2)ccc1O` [Compound 145, N-(2-fluoro-5-(6-(4-hydroxy-3-methoxyphenyl)quinolin-4-ylamino)phenyl)methanesulfonamide]: the inhibition at 1 µM was 7.5%.

Turning to `COc1cc(-c2ccc3ncnc(Nc4cc(NS(C)(=O)=O)c(F)cc4F)c3c2)ccc1O` [Compound 150, N-(2,4-difluoro-5-(6-(4-hydroxy-3-methoxyphenyl)quinazolin-4-ylamino)phenyl)methanesulfonamide], the inhibition at 1 µM amounted to 37.2%.

For the compound `C#Cc1cccc(Nc2ncnc3ccc(-c4ccc(OC)cc4)cc23)c1` [Compound 151, N-(3-ethynylphenyl)-6-(4-methoxyphenyl)quinazolin-4-amine], the inhibition at 1 µM was -5.4%.

Consider `COc1cc(-c2ccc3ncnc(Nc4c(C)ccc5[nH]ncc45)c3c2)ccc1O` [Compound 155, 2-methoxy-4-(4-(5-methyl-1H-indazol-4-ylamino)quinazolin-6-yl)phenol], for which the inhibition at 1 µM was 8.2%.

The same assay, now with this note: read-out: B-Raf inhibition at 1.0 μM.
As to `COc1cc(-c2ccc3ncnc(Nc4ccccc4)c3c2)ccc1OC(=O)Nc1ccccc1` [Compound 7, 2-methoxy-4-(4-(phenylamino)quinazolin-6-yl)phenyl phenylcarbamate], the inhibition at 1 µM was 23.5%.

In the case of `CCNC(=O)Oc1ccc(-c2ccc3ncnc(Nc4ccccc4)c3c2)cc1OC` [Compound 9, 2-methoxy-4-(4-(phenylamino)quinazolin-6-yl)phenyl ethylcarbamate], the inhibition at 1 µM was found to be 13.8%.

The target in the next assay is B-Raf (V600E) (Homo sapiens (Human), UniProt P15056, V600E). Briefly: Raf kinase assay (B-Raf (V600E)), [33P] incorporation into MEK1(K97R). It is filed as biochemical.
B-Raf (V600E), sequence (P15056 whole entry V600E): as the sequence (P15056 whole entry) above, with V600E counted along it
Conditions: not given
As for the experimental part: as §1, §2
For `COc1cccc(-c2ccc3ncnc(Nc4ccccc4)c3c2)c1` [Compound 3, 6-(3-methoxyphenyl)-N-phenylquinazolin-4-amine], the IC50 came out at 3390 nM.

`Oc1ccc(-c2ccc3ncnc(Nc4ccccc4)c3c2)cc1` [Compound 4, 4-(4-(phenylamino)quinazolin-6-yl)phenol] returned a half-maximal inhibitory concentration (IC50) of 4870 nM.

With `CCS(=O)(=O)Nc1ccc(-c2ccc3ncnc(Nc4ccccc4)c3c2)cc1` [Compound 24, N-(4-(4-(phenylamino)quinazolin-6-yl)phenyl)ethanesulfonamide], it took 1810 nM to reach half-maximal inhibition (IC50).

A further assay deals with C-Raf (Homo sapiens (Human), UniProt P04049). Briefly: Raf kinase assay (C-Raf), [33P] incorporation into MEK1(K97R). The assay is classed as biochemical.
C-Raf, sequence (P04049 whole entry): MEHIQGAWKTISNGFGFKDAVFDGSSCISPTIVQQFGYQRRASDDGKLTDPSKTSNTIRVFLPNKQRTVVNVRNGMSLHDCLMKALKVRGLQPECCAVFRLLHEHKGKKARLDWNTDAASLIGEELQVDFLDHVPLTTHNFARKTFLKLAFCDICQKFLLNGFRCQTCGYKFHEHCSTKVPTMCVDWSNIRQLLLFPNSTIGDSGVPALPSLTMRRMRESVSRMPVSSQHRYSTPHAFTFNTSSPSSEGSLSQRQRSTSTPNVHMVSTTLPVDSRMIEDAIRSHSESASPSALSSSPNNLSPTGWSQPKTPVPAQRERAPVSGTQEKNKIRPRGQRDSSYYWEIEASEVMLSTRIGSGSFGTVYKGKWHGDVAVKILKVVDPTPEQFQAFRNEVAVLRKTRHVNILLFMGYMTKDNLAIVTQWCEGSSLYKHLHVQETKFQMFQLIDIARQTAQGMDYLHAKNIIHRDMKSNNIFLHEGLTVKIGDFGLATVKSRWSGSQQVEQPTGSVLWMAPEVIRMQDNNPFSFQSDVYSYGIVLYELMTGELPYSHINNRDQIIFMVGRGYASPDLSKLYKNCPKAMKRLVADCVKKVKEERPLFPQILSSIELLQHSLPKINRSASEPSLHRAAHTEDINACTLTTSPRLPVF
Conditions: not given
As for the experimental part:
as §1, §2
Compound `COc1cccc(-c2ccc3ncnc(Nc4ccccc4)c3c2)c1` [Compound 3, 6-(3-methoxyphenyl)-N-phenylquinazolin-4-amine] registered an IC50 greater than 10000 nM.

Consider `Oc1ccc(-c2ccc3ncnc(Nc4ccccc4)c3c2)cc1` [Compound 4, 4-(4-(phenylamino)quinazolin-6-yl)phenol], for which the midpoint of inhibition, the IC50, lay at 9460 nM.
